Laboratory results taken from the NIST ThermoML archive (doi:10.1016/j.jct.2009.06.021).

Assay: xn = mol fraction of the nth substance listed
Conditions: for surface tension liquid-gas: Maximal bubble pressure; for mass density: 101 kPa, Liquid, Vibrating tube method

ClC(Cl)(Cl)Cl [tetrachloromethane] + C[S+](C)[O-]
Conditions | mass density [kg/m3] | surface tension liquid-gas [mN/m]
298.15 K, x1 = 0.0674 | 1141.26 | –
298.15 K, x1 = 0.0994 | – | 38.6
298.15 K, x1 = 0.101 | 1163.32 | –
298.15 K, x1 = 0.1349 | 1185.11 | –
298.15 K, x1 = 0.1643 | 1203.27 | –
298.15 K, x1 = 0.1969 | – | 34.6
298.15 K, x1 = 0.2133 | 1232.98 | –
298.15 K, x1 = 0.2513 | – | 32.9
298.15 K, x1 = 0.3045 | 1287.19 | –
298.15 K, x1 = 0.3299 | – | 30.8
298.15 K, x1 = 0.383 | – | 29.7
298.15 K, x1 = 0.4641 | 1370.58 | –
298.15 K, x1 = 0.5159 | – | 27.8
298.15 K, x1 = 0.6022 | 1433.93 | –
298.15 K, x1 = 0.6043 | – | 26.8
298.15 K, x1 = 0.6909 | – | 25.9
298.15 K, x1 = 0.7132 | 1481.07 | –
298.15 K, x1 = 0.7493 | – | 25.8
298.15 K, x1 = 0.7604 | 1499.6 | –
298.15 K, x1 = 0.8663 | – | 25.4
298.15 K, x1 = 0.8683 | 1539.93 | –
298.15 K, x1 = 0.913 | 1555.64 | –
303.15 K, x1 = 0.0674 | 1135.93 | –
303.15 K, x1 = 0.0994 | – | 38
303.15 K, x1 = 0.101 | 1157.83 | –
303.15 K, x1 = 0.1349 | 1179.45 | –
303.15 K, x1 = 0.1643 | 1197.47 | –
303.15 K, x1 = 0.1969 | – | 34.2
303.15 K, x1 = 0.2133 | 1226.93 | –
303.15 K, x1 = 0.2513 | – | 32.6
303.15 K, x1 = 0.3045 | 1280.68 | –
303.15 K, x1 = 0.3299 | – | 30.4
303.15 K, x1 = 0.383 | – | 29.2
303.15 K, x1 = 0.4641 | 1363.35 | –
303.15 K, x1 = 0.5159 | – | 27.1
303.15 K, x1 = 0.6022 | 1425.99 | –
303.15 K, x1 = 0.6043 | – | 26.2
303.15 K, x1 = 0.6909 | – | 25.3
303.15 K, x1 = 0.7132 | 1472.61 | –
303.15 K, x1 = 0.7493 | – | 25.1
303.15 K, x1 = 0.7604 | 1490.94 | –
303.15 K, x1 = 0.8663 | – | 24.6
303.15 K, x1 = 0.8683 | 1530.74 | –
303.15 K, x1 = 0.913 | 1546.21 | –
308.15 K, x1 = 0.0674 | 1127.96 | –
308.15 K, x1 = 0.0994 | – | 37.4
308.15 K, x1 = 0.101 | 1150.79 | –
308.15 K, x1 = 0.1349 | 1172.11 | –
308.15 K, x1 = 0.1643 | 1192.66 | –
308.15 K, x1 = 0.1969 | – | 33.4
308.15 K, x1 = 0.2133 | 1222.1 | –
308.15 K, x1 = 0.2513 | – | 31.8
308.15 K, x1 = 0.3045 | 1273.53 | –
308.15 K, x1 = 0.3299 | – | 29.8
308.15 K, x1 = 0.383 | – | 28.7
308.15 K, x1 = 0.4641 | 1355.26 | –
308.15 K, x1 = 0.5159 | – | 26.6
308.15 K, x1 = 0.6022 | 1418.04 | –
308.15 K, x1 = 0.6043 | – | 25.6
308.15 K, x1 = 0.6909 | – | 24.7
308.15 K, x1 = 0.7132 | 1464.13 | –
308.15 K, x1 = 0.7493 | – | 24.5
308.15 K, x1 = 0.7604 | 1482.25 | –
308.15 K, x1 = 0.8663 | – | 24.2
308.15 K, x1 = 0.8683 | 1521.44 | –
308.15 K, x1 = 0.913 | 1536.79 | –
313.15 K, x1 = 0.0499 | 1116.12 | –
313.15 K, x1 = 0.0994 | – | 36.8
313.15 K, x1 = 0.101 | 1146.87 | –
313.15 K, x1 = 0.1349 | 1168.13 | –
313.15 K, x1 = 0.1643 | 1185.85 | –
313.15 K, x1 = 0.1969 | – | 33
313.15 K, x1 = 0.2133 | 1214.87 | –
313.15 K, x1 = 0.2513 | – | 31.4
313.15 K, x1 = 0.3045 | 1267.49 | –
313.15 K, x1 = 0.3299 | – | 29.2
313.15 K, x1 = 0.383 | – | 28.1
313.15 K, x1 = 0.4641 | 1348.78 | –
313.15 K, x1 = 0.5159 | – | 26
313.15 K, x1 = 0.6022 | 1410.05 | –
313.15 K, x1 = 0.6043 | – | 25
313.15 K, x1 = 0.6909 | – | 24.3
313.15 K, x1 = 0.7132 | 1455.61 | –
313.15 K, x1 = 0.7493 | – | 23.9
313.15 K, x1 = 0.7604 | 1473.5 | –
313.15 K, x1 = 0.8663 | – | 23.7
313.15 K, x1 = 0.8683 | 1512.23 | –
313.15 K, x1 = 0.913 | 1527.34 | –
